Assays:
CgMDH = target: T1, CgMDH (Corynebacterium glutamicum, UniProt Q8NN33); assay: NADH oxidation at […] nm; modified Briggs-Haldane fit; format: biochemical; conditions: pH 7.0, 0.1 M Tris-HCl, NADH co-substrate, room temperature; substrate inhibition
T1 construct: gene mdh; full length, C-terminal 6xHis (pET30a), expressed in E. coli BL21(DE3), Ni-NTA, ion exchange and size exclusion

MsMDH = target: T2, MsMDH ([Mannheimia] succiniciproducens, UniProt Q65T37); assay: as above; format: biochemical; conditions: pH 7.0, 0.1 M Tris-HCl, NADH co-substrate, room temperature; uncompetitive substrate inhibition
T2 construct: gene mdh; full length, C-terminal 6xHis (pET30a), expressed in E. coli BL21(DE3), Ni-NTA, ion exchange and size exclusion
T2 sequence (Q65T37 1-312): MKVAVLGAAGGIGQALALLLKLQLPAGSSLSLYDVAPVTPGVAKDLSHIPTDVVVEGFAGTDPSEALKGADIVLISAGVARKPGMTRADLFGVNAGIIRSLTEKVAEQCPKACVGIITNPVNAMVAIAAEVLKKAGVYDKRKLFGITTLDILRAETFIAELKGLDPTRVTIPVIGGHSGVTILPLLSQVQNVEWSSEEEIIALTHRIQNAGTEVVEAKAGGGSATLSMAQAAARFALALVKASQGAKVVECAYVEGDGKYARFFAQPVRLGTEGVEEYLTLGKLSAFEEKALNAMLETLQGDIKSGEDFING

T1 sequence (Q8NN33 whole entry): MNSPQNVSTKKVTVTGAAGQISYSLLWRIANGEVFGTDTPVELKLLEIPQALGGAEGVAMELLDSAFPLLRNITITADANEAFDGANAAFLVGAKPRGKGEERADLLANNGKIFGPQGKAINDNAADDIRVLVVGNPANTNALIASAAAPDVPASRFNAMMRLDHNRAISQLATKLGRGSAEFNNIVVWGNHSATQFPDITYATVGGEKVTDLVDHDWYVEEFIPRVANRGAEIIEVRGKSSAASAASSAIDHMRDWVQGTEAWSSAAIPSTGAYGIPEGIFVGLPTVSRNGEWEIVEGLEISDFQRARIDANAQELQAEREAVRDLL

## O=C(O)CC(=O)C(=O)O [oxaloacetate]
CgMDH
  CgMDH / ki: 500.0 ± 114.1 µM
MsMDH
  MsMDH / ki: 47.3 ± 22.1 µM

From publication PMC7181634, “Enhanced succinic acid production by Mannheimia employing optimal malate dehydrogenase” (Nature Communications, 2020)
